From patent publication US20240327423A1, “A SERIES OF PYRROLE DERIVATIVES AND THEIR PREPARATION METHOD AND THERAPEUTIC USE” (SHENZHEN SUNGENING BIO-MEDICAL CO., LTD, priority 2020, published 2024) come the findings set out here.

Values after ≈ are worked out from the molar mass of the structure shown.

Series [1] has as its system Aspergillus flavus (ATCC 204304). Briefly: Measurement of minimum inhibitory concentration (MIC), ATCC 204304. Type of series: cell-based. To be noted: ATCC204304; Aspergillus flavus ATCC 204304, 35° C., 48 hours. As for the experimental part:
(§1) New streaks are made with glycerol stock solution of the strains of Aspergillus fumigatus (ATCC MYA-4609/AF 293/CBS 101355) on Sabouraud's dextrose agar (SDA), incubate at 35° C. and a humidity of 40-70% for 72 hours. Other strains are processed as the same as AF293.
(§2) RPMI1640: one packet of RPMI1640 powder is dissolved in 1 L purified water and mixed well, add 0.165M MOPS, adjust the pH to 7.0, sterilize by filtration with 0.22 um membrane, and store at 4° C. for no more than 3 months.
(§3) Physiological saline: weigh 9 g of sodium chloride powder and dissolve in 1 L of purified water, and mixed well. Sterilize at 121° C. for 30 min, store at room temperature (RT) for no more than 1 week.
(§4) Dissolve the test compound and stock solution of one control compound with DMSO and obtain solutions at a concentration of 12.8 mg/mL
(§5) The maximum concentration of each compound is 0.8 mg/mL (e.g., 150 μL of dimethyl sulfoxide+10 uL of 12.8 mg/mL compound/control). Column 1 is filled with 40 μL of compound and columns 2 to 11 with 20 μL of dimethyl sulfoxide. Transfer 20 μL of compound from column 1 to column 2 to dilute the concentration. Repeat the above steps up to column 11 to give 2× serial dilutions.
(§6) 2 μL of the above 2× serial dilutions are injected into each hole of the corresponding test plate using a multichannel pipette.
(§7) Drop 5 ml of saline on the Aspergillus fumigatus SDA plate. The spores were carefully wiped off from the surface of the plate with an L-shaped coating rod. Then the suspension is transferred into a sterile tube. After shaking, let the tube stand for 5 to 10 minutes. Count the number of spores in the upper suspension with a hemocytometer and check the purity. Adjust the inoculum concentration to 0.2-2.5×10^4 spores/mL.
(§8) Inject 198 μL of diluted inoculum into each holes of the corresponding test plate using a multichannel pipette.
(§9) Incubate at 35° C. for 48 hours.
(§10) To facilitate scoring of the presence or absence of growth on the wall, a magnifying glass is used. The tested 96-well microplates were photographed and the optical density at 530 nm is read with an enzyme marker (Tecan Spark).

Series [2] relates to Aspergillus fumigatus (ATCC-204305). Description: Measurement of minimum inhibitory concentration (MIC), ATCC 204305. The series is classed as cell-based. To be noted: ATCC204305; Aspergillus fumigatus ATCC 204305, 35° C., 48 hours. As for the experimental part: New streaks are made with glycerol stock solution of the strains of Aspergillus [NT] MYA-4609/AF 293/CBS 101355) on Sabouraud's dextrose agar (SDA), incubate at 35° C. and a humidity of 40-70% for 72 hours. Other strains are processed as the same as AF293. RPMI1640: one packet of RPMI1640 powder is dissolved in 1 L purified water and mixed well, add 0.165M MOPS, adjust the pH to 7.0, sterilize by filtration with 0.22 um membrane, and store at 4° C. for no more than 3 months. Physiological saline: weigh 9 g of sodium chloride powder and dissolve in 1 L of purified water, and mixed well. […] Dissolve the test compound and stock solution of one control compound with DMSO and obtain solutions at a concentration of 12.8 mg/mL The maximum concentration of each compound is 0.8 mg/mL (e.g., 150 μL of dimethyl sulfoxide+10 uL of 12.8 mg/mL compound/control). […] Repeat the above steps up to column 11 to give 2× serial dilutions. 2 μL of the above 2× serial dilutions are injected into each hole of the corresponding test plate using a multichannel pipette. Drop 5 ml of saline on the Aspergillus fumigatus SDA plate. The spores were carefully wiped off from the surface of the plate with an L-shaped coating rod. Then the suspension is transferred into a sterile tube. After shaking, let the tube stand for 5 to 10 minutes. Count the number of spores in the upper suspension with a hemocytometer and check the purity. Adjust the inoculum concentration to 0.2-2.5×10^4 spores/mL. Inject 198 μL of diluted inoculum into each holes of the corresponding test plate using a multichannel pipette. Incubate at 35° C. for 48 hours. […] To facilitate scoring of the presence or absence of growth on the wall, a magnifying glass is used. The tested 96-well microplates were photographed and the optical density at 530 nm is read with an enzyme marker (Tecan Spark).

Series [3] can be described thus: Pharmacokinetic test in SD rats, single oral administration. The series is classed as in vivo. To be noted: SD, rat, plasma, po, 10 mg/kg, single oral administration 10 mg/kg, test compound mixed with F901318, plasma. As for the experimental part:
Pharmacokinetic study is performed on SD rats receiving single oral administration of each test compound mixed with F901318 (10 mg/kg, 3 rats per group). Test compounds and F901318 are dissolved with […]+10% solutol+85% saline, vortexed for 1-2 mins and ultra-sonicated for 5-10 mins to form a colorless clear drug solution. The animals are fasted overnight before oral administration, and resumed feeding 4 hours after administration. After oral administration, pharmacokinetic samples are collected from orbital blood of SD rats at 0.083 h, 0.25 h, 0.5 h, 1 h, 2 h, 4 h, 6 h, 8 h, and 24 h, and three whole blood samples are collected at each time point in a volume of 0.2-0.3 mL. Blood samples are placed on ice immediately after collected, and the plasma is separated by centrifugation within 15 min (centrifugation conditions: 8000 rpm, 1 min, and at room temperature).
The collected plasma is stored at −20° C. prior to analysis. Transfer 20 μL of plasma sample into an 0.5 mL EP tube, add 200 μL of working internal standard solution (blank group is without internal standard, using the same volume of solvent instead), vortex and mix for 3 min centrifuge at 13500 rpm for 10 min, take 100 μL of supernatant and analyze with LC-MS/MS.

In series [4] the test system is Aspergillus fumigatus (ATCC MYA-4609/AF293/CBS 101355). Description: Measurement of minimum inhibitory concentration (MIC), AF293. To be noted: CBS101355; Aspergillus fumigatus AF293, 35° C., 48 hours, RPMI1640; read-out: AF293: MIC. Type of series: cell-based. As for the experimental part:
as §1, §2, §3, §4, §5, §6, §7, §8, §9, §10

In series [5] the test system is Aspergillus flavus (ATCC MYA-1004). Description: Measurement of minimum inhibitory concentration (MIC), ATCC MYA-1004. Type of series: cell-based. To be noted: Aspergillus flavus ATCC MYA-1004, 35° C., 48 hours. As for the experimental part:
as §1, §2, §3, §4, §5, §6, §7, §8, §9, §10

A short description of series [6]: Liver microsomal stability test, mouse. Type of series: in vitro ADME. To be noted: Mouse liver microsomes; for CLint scaled / half-life: 0.5 mg/mL protein, 37° C., NADPH. As for the experimental part: (§11) • 1: Add 10 μL of working solutions of test product or reference product and 80 μL of microsomal working solution (liver microsomal protein concentration of 0.5 mg/mL) to wells of TO, T5, T10, T20, T30, T60, and NCF60, and only microsomal working solution is added to the Blank60 wells. Then the samples of Blank60, T10, T20, T30 and T60, except for TO and NCF60, are placed in a water bath set at 37° C. and incubate for approximately 10 mins; • 2: Add 300 μL of termination solution (acetonitrile solution containing 200 ng/mL tolbutamide and 200 ng/mL labetalol) to Sample TO, followed by 10 ul of NADPH regeneration system working solution; • 3: After incubation of Blank60, T5, T10, T20, T30 and T60 on incubation plates, add 10 μL of NADPH regeneration system working solution to each sample well to start the reaction, and 10 uL of 100 mM potassium phosphate buffer is add to the NCF60 sample wells; • 4: After incubation for appropriate times (e.g., 5, 10, 20, 30 and 60 mins), 300 μL of termination solution is add to each sample well of test product and reference product on Blank60, T5, T10, T20, T30, T60 and NCF60 plates, respectively, to terminate the reaction. • 5: All sample plates are shaken well and centrifuged at 4000 rpm for 20 min, take 100 μL of the supernatant of the test product or reference product, dilute in 300 μL of pure water for LC-MS/MS analysis, respectively. • 6: Data analysis, T½ and CLint(mic) (μL/min/mg) values are calculated based on the first-order elimination kinetics, and the equations of first-order elimination kinetics are: […]
(In general: Liver microsomes are vesicles of endoplasmic reticulum, rich in cytochrome P450 enzymes.)

Series [7] can be described thus: Liver microsomal stability test, human. To be noted: Human liver microsomes; for CLint scaled / half-life: 0.5 mg/mL protein, 37° C., NADPH. The series is classed as in vitro ADME. As for the experimental part:
as §11

For the compound `Cc1cc(-c2ccccc2)c(C(=O)C(=O)Nc2ccc3c(c2)OCC2CN(c4ncc(F)cn4)CCN32)n1C` (centres unmarked) [Example 3, 2-(1,5-dimethyl-3-phenyl-1H-pyrrol-2-yl)-N-(3-(5-fluoropyrimidin-2-yl)-1,2,3,4,4a,5-hexahydrobenzo[b]pyrazino[1,2-d][1,4]oxazin-8-yl)-2-oxoacetamide], the minimum inhibitory concentration (MIC) (usually the lowest concentration that inhibits growth of the organism) in series [1] is 0.008 µg/mL (≈ 0.0152 µM); in series [2] it was 0.016 µg/mL (≈ 0.0304 µM); in series [4], 0.125 µg/mL (≈ 0.237 µM); in series [5] it was 0.008 µg/mL (≈ 0.0152 µM). The exposure (AUC) (as a rule, the area under the concentration-time curve, a measure of exposure) in series [3] (read-out: AUC) was found to be 18700 ng·h/mL. Moreover, the Cmax – broadly, the peak of the concentration-time curve – in series [3] (read-out: Cmax) is 1420 ng/mL. The time of peak concentration (Tmax) (in general, the time from dosing to the highest level) in series [3] (read-out: Tmax) amounted to 55 min. In addition, the half-life in series [3] (read-out: T½ (converted)) was 321 min.
In the case of `Cc1cc(-c2ccccc2)c(C(=O)C(=O)Nc2cc(F)c3c(c2)OCC2CN(c4ncc(F)cn4)CCN32)n1C` (centres unmarked) [Example 4], the MIC in series [1] was determined as 0.016 µg/mL (≈ 0.0294 µM); in series [2], 0.016 µg/mL (≈ 0.0294 µM); in series [4] it was 0.03 µg/mL (≈ 0.0551 µM); in series [5], 0.008 µg/mL (≈ 0.0147 µM). In addition, the values for the intrinsic metabolic clearance (CLint scaled) in series [6] and in series [7] were 114 mL/min/kg and 66.4 mL/min/kg, respectively. Further, the half-life was 21.8 min in series [6] and 18.8 min in series [7]. Also, the “Remaining, (T = 60 min)” value in series [6] was 14.3%; in series [7] it was 10.5%.
Turning to `Cc1cc(-c2ccccc2)c(C(=O)C(=O)Nc2ccc3c(c2)CCC2CN(c4ncc(F)cn4)CCN32)n1C` (centres unmarked) [Example 32, 2-(1,5-dimethyl-3-phenyl-1H-pyrrol-2-yl)-N-(3-(5-fluoropyrimidin-2-yl)-2,3,4,4a,5,6-hexahydro-1H-pyrazino [1,2-a]quinolin-8-yl)-2-oxoacetamide], the MIC in series [1] came to 0.016 µg/mL (≈ 0.0305 µM); in series [2] it was 0.03 µg/mL (≈ 0.0572 µM); in series [4], 0.008 µg/mL (≈ 0.0152 µM); in series [5], 0.016 µg/mL (≈ 0.0305 µM). The CLint scaled (usually the capacity of the preparation to metabolise the compound, expressed as a volume cleared per time) was 89.8 mL/min/kg in series [6] and 56.4 mL/min/kg in series [7]. Further, the half-life was 27.8 min in series [6] and 22.1 min in series [7]. In addition, the “Remaining, (T = 60 min)” value in series [6] is recorded as 26.2%; in series [7], 26.6%.
As to `Cc1cc(-c2ccccc2)c(C(=O)C(=O)Nc2ccc3c(c2)C[C@@H]2CN(c4ncc(F)cn4)CCN32)n1C` [Example 34, (R)-2-(1,5-dimethyl-3-phenyl-1H-pyrrol-2-yl)-N-(2-(5-fluoropyrimidin-2-yl)-1,2,3,4,10,10a-hexahydropyrazino [1,2-a]indol-8-yl)-2-oxoacetamide], the minimal inhibitory concentration (MIC) in series [1] was determined as 0.016 µg/mL (≈ 0.0313 µM); in series [2] it was 0.03 µg/mL (≈ 0.0588 µM); in series [4], 0.016 µg/mL (≈ 0.0313 µM); in series [5], 0.008 µg/mL (≈ 0.0157 µM). Besides, the CLint scaled is 45.9 mL/min/kg in series [6] and 31.3 mL/min/kg in series [7]. Besides, the half-life in series [6] came to 54.4 min; in series [7], 39.9 min. Besides, the “Remaining, (T = 60 min)” value in series [6] is given as 48.5%; in series [7] it was 34.5%.
